In US9982005B2, “Macrolides and methods of their preparation and use” (President and Fellows of Harvard College, priority 2013, dated 2018):
Values after ≈ are worked out from the molar mass of the structure shown. Where two headings read alike, the source gives them in different places.

How the values were obtained:
Format in all cases: cell-based
K. pneumoniae strains = assay: MIC against K. pneumoniae strains (Table M8); details: for MIC: Klebsiella pneumoniae, K. pneumoniae 10031
H. influenzae strains = assay: MIC against H. influenzae strains (Table M8); details: for MIC: Haemophilus influenzae
Excerpt: (§1) We have collected MIC data for a total of 50 novel macrolides that this platform has produced against over 21 unique strains of B. subtilis, E. coli, S. aureus, S. pneumoniae, and H. influenzae, including several multidrug-resistant strains, with a special focus on macrolide resistant mechanisms (vide supra). Azithromycin was included as a control macrolide. CLSI standard procedures for broth dilution MIC determination were used. […] These genotypes can be constitutive or inducible. The finding that C4-epi (unnatural) isomers of the “azaketolide” macrolide class have enhanced activities relative to C4 natural isomers is very exciting.

E. faecalis strains = assay: MIC against E. faecalis strains (Table M8); details: for MIC: Enterococcus faecalis, E. faecalis 29212
A. baumannii strains = assay: MIC against A. baumannii strains (Table M8); details: for MIC: Acinetobacter baumannii, BAA747, A. baumannii BAA747-1
S. aureus strains = assay: MIC against S. aureus strains (Table M7); details: for MIC: Staphylococcus aureus
Excerpt: as §1

S. pneumoniae strains = assay: MIC against S. pneumoniae strains (Tables M7, M8); details: for MIC: Streptococcus pneumoniae
Excerpt: CLSI standard procedures for broth dilution MIC determination were used. […] These genotypes can be constitutive or inducible.

E. coli strains = assay: MIC against E. coli strains (Table M7); details: for MIC: Escherichia coli, ATCC25922, E. coli ATCC 25922
Excerpt: as §1

[1] = H. influenzae 49247, read-out: MIC H. influenzae (49247)
[2] = H. influenzae 49766, read-out: MIC H. influenzae (49766)
[3] = ATCC29213, S. aureus ATCC 29213, read-out: MIC S. aureus (ATCC 29213)
[4] = S. aureus 183, read-out: MIC S. aureus (183)
[5] = S. aureus 506, read-out: MIC S. aureus (506)
[6] = S. aureus 1708, read-out: MIC S. aureus (1708)
[7] = USA300, S. aureus USA300, read-out: MIC S. aureus (USA300)
[8] = S. pneumoniae 160, read-out: MIC S. pneumonae (160)
[9] = S. pneumoniae 1509, read-out: MIC S. pneumoniae (1509)
[10] = S. pneumoniae 1533, read-out: MIC S. pneumoniae (1533)
[11] = S. pneumoniae 1537, read-out: MIC S. pneumoniae (1537)
[12] = S. pneumoniae 49619, read-out: MIC S. pneumoniae (49619)

SMILES	MIC S. pneumoniae (49619) (S. pneumoniae strains; S. pneumoniae 49619) [µg/mL]	MIC (K. pneumoniae strains) [µg/mL]	MIC (H. influenzae strains; [1]) [µg/mL]	MIC (H. influenzae strains; [2]) [µg/mL]	MIC (E. faecalis strains) [µg/mL]	MIC (A. baumannii strains) [µg/mL]	MIC (S. aureus strains; [3]) [µg/mL]	MIC (S. aureus strains; [4]) [µg/mL]	MIC (S. aureus strains; [5]) [µg/mL]	MIC (S. aureus strains; [6]) [µg/mL]	MIC (S. aureus strains; [7]) [µg/mL]	MIC (S. pneumoniae strains; [8]) [µg/mL]	MIC (S. pneumoniae strains; [9]) [µg/mL]	MIC (S. pneumoniae strains; [10]) [µg/mL]	MIC (S. pneumoniae strains; [11]) [µg/mL]	MIC (E. coli strains) [µg/mL]	MIC (S. pneumoniae strains; [12]) [µg/mL]	also measured
CCC1OC(=O)C(Cc2cn[nH]c2)C(=O)C(C)C(OC2OC(C)CC(N(C)C)C2O)C(C)(OCC=Cc2cnc3ccccc3c2)CC(C)CNC(C)C2NC(=O)OC12C (mixture of isomers) [FSM-21264]	2																	MIC K. pneumoniae (10031) (K. pneumoniae strains): >32 µg/mL; MIC H. influenzae (49247) (H. influenzae strains; H. influenzae 49247): 8 µg/mL; MIC H. influenzae (49766) (H. influenzae strains; H. influenzae 49766): >32 µg/mL; MIC E. faecalis (29212) (E. faecalis strains): >32 µg/mL; MIC A. baumannii (BAA747-1) (A. baumannii strains): >32 µg/mL; MIC S. aureus (183) (S. aureus strains; S. aureus 183): >32 µg/mL; MIC S. aureus (506) (S. aureus strains; S. aureus 506): >32 µg/mL; MIC S. aureus (1708) (S. aureus strains; S. aureus 1708): >32 µg/mL; MIC S. aureus (ATCC 29213) (S. aureus strains): >32 µg/mL; MIC S. aureus (USA300) (S. aureus strains): >32 µg/mL; MIC S. pneumonae (160) (S. pneumoniae strains; S. pneumoniae 160): 4 µg/mL; MIC S. pneumoniae (1509) (S. pneumoniae strains; S. pneumoniae 1509): >32 µg/mL; MIC S. pneumoniae (1533) (S. pneumoniae strains; S. pneumoniae 1533): >32 µg/mL; MIC S. pneumoniae (1537) (S. pneumoniae strains; S. pneumoniae 1537): >32 µg/mL; MIC E. coli (ATCC 25922) (E. coli strains): >32 µg/mL
CC[C@H]1OC(=O)[C@H](C)C(=O)[C@H](C)[C@@H](O[C@@H]2OC(C)CC(N(C)C)C2O)[C@](C)(OC)CC(C)N[C@H](C)[C@H]2N(CCCCn3cc(-c4cccc(N)c4)nn3)C(=O)O[C@]12C (single isomer, unassigned) [FSM-30689]	8 (≈ 9.83 µM)	> 32	16 (≈ 19.7 µM)	> 32	32 (≈ 39.3 µM)	> 32	> 32	> 32	> 32	> 32	> 32	16 (≈ 19.7 µM)	16 (≈ 19.7 µM)	> 32	> 32	> 32		
C=CC[C@@]1(OC)C[C@@H](C)CN[C@H](C)[C@H]2N(CCCCn3cc(-c4cccc(N)c4)nn3)C(=O)O[C@]2(C)[C@@H](CC)OC(=O)[C@H](C)C(=O)[C@@H](C)[C@H]1O[C@@H]1OC(C)CC(N(C)C)C1O (stereo in doubt) [FSM-21368]	1 (≈ 1.17 µM)																	MIC K. pneumoniae (10031) (K. pneumoniae strains): 4 µg/mL (≈ 4.68 µM); MIC H. influenzae (49247) (H. influenzae strains; H. influenzae 49247): 2 µg/mL (≈ 2.34 µM); MIC H. influenzae (49766) (H. influenzae strains; H. influenzae 49766): 8 µg/mL (≈ 9.37 µM); MIC E. faecalis (29212) (E. faecalis strains): 2 µg/mL (≈ 2.34 µM); MIC A. baumannii (BAA747-1) (A. baumannii strains): 16 µg/mL (≈ 18.7 µM); MIC S. aureus (183) (S. aureus strains; S. aureus 183): >32 µg/mL; MIC S. aureus (506) (S. aureus strains; S. aureus 506): >32 µg/mL; MIC S. aureus (1708) (S. aureus strains; S. aureus 1708): 16 µg/mL (≈ 18.7 µM); MIC S. aureus (ATCC 29213) (S. aureus strains): 8 µg/mL (≈ 9.37 µM); MIC S. aureus (USA300) (S. aureus strains): 8 µg/mL (≈ 9.37 µM); MIC S. pneumonae (160) (S. pneumoniae strains; S. pneumoniae 160): 0.25 µg/mL (≈ 0.293 µM); MIC S. pneumoniae (1509) (S. pneumoniae strains; S. pneumoniae 1509): 8 µg/mL (≈ 9.37 µM); MIC S. pneumoniae (1533) (S. pneumoniae strains; S. pneumoniae 1533): >32 µg/mL; MIC S. pneumoniae (1537) (S. pneumoniae strains; S. pneumoniae 1537): >32 µg/mL; MIC E. coli (ATCC 25922) (E. coli strains): 8 µg/mL (≈ 9.37 µM)
CC[C@H]1OC(=O)[C@H](C)C(=O)[C@H](C)[C@@H](O[C@@H]2OC(C)CC(N(C)C)C2O)[C@](C)(OC)C[C@@H](C)CNC[C@H]2N(CCCCn3cc(-c4cccc(N)c4)nn3)C(=O)O[C@]12C (stereo partly shown) [FSM-11031]		4 (≈ 4.91 µM)	2 (≈ 2.46 µM)	4 (≈ 4.91 µM)	0.25 (≈ 0.307 µM)	16 (≈ 19.7 µM)	2 (≈ 2.46 µM)	> 32	> 32	1 (≈ 1.23 µM)	4 (≈ 4.91 µM)	0.25 (≈ 0.307 µM)	1 (≈ 1.23 µM)	> 32	> 32	16 (≈ 19.7 µM)	0.25 (≈ 0.307 µM)	
C=CC[C@H]1NC[C@H](C)C[C@@](C)(OC)[C@H](O[C@@H]2OC(C)CC(N(C)C)C2O)[C@@H](C)C(=O)[C@@H](C)C(=O)O[C@H](CC)[C@@]2(C)OC(=O)N(CCCCn3cc(-c4cccc(N)c4)nn3)[C@H]12 (stereo partly shown) [FSM-11044]		8 (≈ 9.37 µM)	2 (≈ 2.34 µM)	8 (≈ 9.37 µM)	0.25 (≈ 0.293 µM)	32 (≈ 37.5 µM)	1 (≈ 1.17 µM)	> 32	> 32	1 (≈ 1.17 µM)	1 (≈ 1.17 µM)	0.125 (≈ 0.146 µM)	1 (≈ 1.17 µM)	> 32	> 32	32 (≈ 37.5 µM)	0.125 (≈ 0.146 µM)	
CC[C@H]1OC(=O)[C@H](C)C(=O)[C@H](C)[C@@H](O[C@@H]2OC(C)CC(N(C)C)C2O)[C@](C)(OC)C[C@@H](C)CN[C@H](CCN(C)C)[C@H]2N(CCCCn3cc(-c4cccc(N)c4)nn3)C(=O)O[C@]12C (stereo partly shown) [FSM-11052]		16 (≈ 18.1 µM)	8 (≈ 9.04 µM)	32 (≈ 36.2 µM)	2 (≈ 2.26 µM)	> 32	8 (≈ 9.04 µM)	> 32	> 32	4 (≈ 4.52 µM)	32 (≈ 36.2 µM)	0.5 (≈ 0.565 µM)	0.5 (≈ 0.565 µM)	> 32	> 32	> 32	0.125 (≈ 0.141 µM)	
CC[C@H]1OC(=O)[C@H](C)C(=O)[C@H](C)[C@@H](O[C@@H]2OC(C)CC(N(C)C)C2O)[C@](C)(OC)C[C@@H](C)CN[C@H](CCO)[C@H]2N(CCCCn3cc(-c4cccc(N)c4)nn3)C(=O)O[C@]12C (stereo partly shown) [FSM-11056]		16 (≈ 18.6 µM)	4 (≈ 4.66 µM)	16 (≈ 18.6 µM)	2 (≈ 2.33 µM)	> 32	8 (≈ 9.32 µM)	> 32	> 32	8 (≈ 9.32 µM)	32 (≈ 37.3 µM)	1 (≈ 1.17 µM)	0.5 (≈ 0.583 µM)	> 32	> 32	> 32	0.125 (≈ 0.146 µM)	
C=CC[C@@H]1[C@H]2N(CCCCn3cc(-c4cccc(N)c4)nn3)C(=O)O[C@]2(C)[C@@H](CC)OC(=O)[C@H](C)C(=O)[C@H](C)[C@@H](O[C@@H]2OC(C)CC(N(C)C)C2O)[C@](C)(OC)C[C@@H](C)CN1C (stereo partly shown) [FSM-11094]		16 (≈ 18.4 µM)	8 (≈ 9.22 µM)	16 (≈ 18.4 µM)	4 (≈ 4.61 µM)	> 32	8 (≈ 9.22 µM)	> 32	> 32	16 (≈ 18.4 µM)	8 (≈ 9.22 µM)	1 (≈ 1.15 µM)	> 32	> 32	> 32	> 32	2 (≈ 2.3 µM)	
CC[C@H]1OC(=O)C(C)(F)C(=O)[C@H](C)[C@@H](O[C@@H]2OC(C)CC(N(C)C)C2O)[C@](C)(OC/C=C/c2cnc3ccccc3c2)C[C@@H](C)CN[C@H](C)[C@H]2NC(=O)O[C@@]21C (stereo partly shown) [FSM-21088]		> 32	8 (≈ 10.2 µM)	> 32	8 (≈ 10.2 µM)	> 32	16 (≈ 20.4 µM)	> 32	> 32	8 (≈ 10.2 µM)	16 (≈ 20.4 µM)	0.5 (≈ 0.637 µM)	> 32	> 32	> 32	> 32	2 (≈ 2.55 µM)	
CC[C@H]1OC(=O)C(C)C(=O)[C@H](C)[C@@H](O[C@@H]2OC(C)CC(N(C)C)C2O)[C@](C)(OC/C=C/c2cnc3ccccc3c2)C[C@@H](C)CN(C)[C@H](C)[C@H]2NC(=O)O[C@@]21C (stereo partly shown) [FSM-21118]		2 (≈ 2.56 µM)	2 (≈ 2.56 µM)	8 (≈ 10.2 µM)	0.5 (≈ 0.64 µM)	32 (≈ 41 µM)	1 (≈ 1.28 µM)	> 32	> 32	1 (≈ 1.28 µM)	2 (≈ 2.56 µM)	≤ 0.0625	1 (≈ 1.28 µM)	> 32	32 (≈ 41 µM)	8 (≈ 10.2 µM)	0.125 (≈ 0.16 µM)	
